Source: US20250101027A1, “ORGANIC COMPOUND, LIGHT-EMITTING DEVICE, LIGHT-EMITTING APPARATUS, AND ELECTRONIC APPLIANCE” (SEMICONDUCTOR ENERGY LABORATORY CO., LTD., priority 2023, published 2025)
Values after ≈ are worked out from the molar mass of the structure shown.

Experiment: Solubility test in water by LC-MS analysis
Type: physicochemical
Conditions: for peak area value derived from the compound through the LC-MS analysis (solubility test in water): ultrasonic waves five minutes, filtrate diluted five times with acetonitrile, one atmosphere, room temperature
Method: Next, a solubility test of PrdP2Phen was performed. Note that the solubility test was conducted at a pressure of one atmosphere, at room temperature (RT).
In the LC-MS analysis, liquid chromatography (LC) separation was carried out with ACQUITY UPLC manufactured by Waters Corporation, and MS analysis (mass spectrometry) was carried out with Xevo G2 Tof MS manufactured by Waters Corporation. Acquity UPLC BEH C8 (2.1×100 mm, 1.7 μm) was used as a column for the LC separation. Acetonitrile was used for Mobile Phase A and a 0.1% aqueous solution of formic acid was used for Mobile Phase B. The injection amount of the sample was 5.0 μL. Note that in the analysis, the wavelength of a photodiode array detector was set to 263 nm±1 nm.
In a 5-mL sample bottle, I mg of PrdP2Phen was put and 1 mL of water was added thereto. This mixture was irradiated with ultrasonic waves for five minutes. This mixture was filtered through a membrane filter to remove the solid, and the resulting filtrate was diluted by five times with acetonitrile. The obtained solution was subjected to LC-MS analysis.
In a 5-mL sample bottle, 1 mg of Pyrrd-Phen was put and 2 mL of toluene was added thereto. This mixture was irradiated with ultrasonic waves for five minutes. After it was confirmed that the solid was completely dissolved, this solution was diluted by 5 times with acetonitrile, whereby the concentration of the solution was adjusted to 100 mg/L. This solution was diluted with a 3:7 toluene-acetonitrile mixed solvent, whereby a solution with a concentration of 20 mg/L, a solution with a concentration of 10 mg/L, and a solution with a concentration of 5 mg/L were prepared. The prepared solutions were subjected to LC-MS analysis, and the peak area values derived from Pyrrd-Phen, which were obtained at the respective solution concentrations, were used to form calibration curves.
Next, the water solubility of Pyrrd-Phen was measured.
In a 5-mL sample bottle, 1 mg of Pyrrd-Phen was put and 1 mL of water was added thereto. This mixture was irradiated with ultrasonic waves for five minutes. This mixture was filtered through a membrane filter to remove the solid, and the resulting filtrate was diluted by five times with acetonitrile. The obtained solution was subjected to LC-MS analysis.
Next, a solubility test of Hid-PrdPPhen was performed. Note that the solubility test was conducted at a pressure of one atmosphere at room temperature (RT).
In the LC-MS analysis, liquid chromatography (LC) separation was carried out with ACQUITY UPLC manufactured by Waters Corporation, and MS analysis (mass spectrometry) was carried out with Xevo G2 Tof MS manufactured by Waters Corporation. Acquity UPLC BEH C8 (2.1×100 mm, 1.7 μm) was used as a column for the LC separation. […]

[1] = 1 mg in 1 mL of water, filtered

Row | SMILES | peak area value derived from the compound through the LC-MS analysis (solubility test in water) [1] | water solubility (in words) (conclusion from LC-MS solubility test) | solubility at 5 min (thermodynamic from solid, from calibration curve and LC-MS signal intensity, 1 mg in 1 mL of water, sonicated, filtered) [µg/mL]
1 | c1cc(-c2ccc(N3CCCC3)cc2)c2ccc3c(-c4ccc(N5CCCC5)cc4)ccnc3c2n1 [PrdP2Phen, 4,7-bis[4-(1-pyrrolidinyl)phenyl]-1,10-phenanthroline] | failed to be obtained |  | 
2 | c1cc(-c2ccc(N3CCCC3)cc2)c2ccc3c(N4CC5CCCCC5C4)ccnc3c2n1 (stereo not shown) [Hid-PrdPPhen, 4-(2,3,3a,4,5,6,7,7a-octahydro-1H-isoindol-2-yl)-7-[4-(I-pyrrolidinyl)phenyl]-1,10-phenanthroline] | failed to be obtained |  | 
3 | c1cc(N2CCCC2)c2ccc3c(N4CCCC4)ccnc3c2n1 [Pyrrd-Phen, 4,7-di-1-pyrrolidinyl-1,10-phenanthroline] |  | high water solubility | 59 (≈ 185 µM)
